Assays:
[1] = Pharmacokinetics in SD rats, single IV injection; assay type: in vivo, Sprague-Dawly (SD) rats; settings: for AUClast / AUC∞ / Clearance / Observed Cmax / Terminal Elimination Half-Life: analyte (S)-YK-4-279 in plasma
Description: To optimize dosing in animals, we determined the pharmacokinetics of YK-4-279 and its single enantiomers in Sprague-Dawly (SD) rats. Three rats of each gender were assigned to nine dose groups. Animals in Groups 1 through 3 received a single intravenous (IV) injection of racemic mixture, (S)-YK-4-279, or (R)-YK-4-279 at a dose of 25 mg/kg. Animals in Groups 4 through 9 received a single oral gavage administration of racemic mixture, (S)-YK-4-279, or (R)-YK-4-279 at a dosage level of 25 or 50 mg/kg. […] However, given that approximately 50 percent of the racemic mixture is (S)-YK-4-279 and the clearance […] the dose, the IV clearance of (S)-YK-4-279 is considered to be similar whether a racemic mixture or only (S)-YK-4-279 is administered. Systemic exposure to (S)-YK-4-279 was evaluated using Cmax and AUC values. Cmax and AUC8 values were similar between males and females for a given dose group. With an expected enantiomer ratio of 1:1 in the racemic dose, Group 2 animals would have received a 2-fold higher dose of (S)-YK-4-279 than Group 1 animals. […] Absolute bioavailability of (S)-YK-4-279 following gavage administration, using cremophor/ethanol as an excipient, in SD rats was only 2–6% (Table 2).
Nine SD rats of each gender were assigned to nine dose groups. Groups 1 through 3 received a single IV injection of racemic mixture, (S)-YK-4-279, or (R)-YK-4-279 at a dose of 25 mg/kg. Groups 4 through 9 received a single gavage administration of racemic mixture, (S)-YK-4-279, or (R)-YK-4-279 at a dosage level of 25 or 50 mg/kg. Blood samples were collected from one animal per group per time point at target time points of pre-dose, 5, 15, 30 and 60 minutes, and 2, 4, 8 and 12 hours following dosing. Plasma was obtained from the samples and analyzed for (S) and (R)-YK-4-279 concentrations.
The plasma and tumor sample analysis was performed using calibration standards and Quality Control (QC) samples prepared in control rat or mouse plasma and tumor tissues. Plasma and tumor calibration standards were prepared from stock solutions of YK-4-279. The calibration standards, blanks, QC samples, and study samples were then processed by solid-liquid extraction (SLE) followed by analysis using liquid chromatography with mass spectrometry (LC-MS). The LC-MS systems used for the analysis of YK-4-279 was composed of Shimadzo prominence pump and auto-sampler (Kyoto, Japan), a Sciex API 5000 MS (Toronto, Ontario), with turbo ion spary in the positive ion mode. The samples for the analysis of total YK-4-279 were injected into a 50 × 2 mm Gemini- NX, 5 ¼m column (Phenomenex, Torrance, CA). The samples for the analysis of the specific enantiomers of YK-4-279 were injected into a 150 × 2 mm Lux Cellulose-2, 3 ¼m Phenomenex column. The transitions monitored were 366 amu to 135 amu for YK-4-279 and 369 amu to 138 amu for the YK-4-279-d3 internal standard. YK-4-279 concentrations were calculated using peak area response ratios and a regression equation constructed from the concentrations and peak area response ratios of the calibration standards. The lower limit of quantitation was 5.0 ng/mL in plasma and […] in tumor tissue. The concentration-time profiles were evaluated by compartmental modeling and non-compartmental analysis using WinNonlin (Pharsight Corporation, Mountain View, CA). The PK parameters obtained from the compartmental modeling were used in simulations to identify optimal dose level and dosing schedule for maintaining plasma concentration of (S)-YK-4-279 above 3 ¼M.

caveolin-1 = assay: Caveolin-1 IHC staining of xenograft tumors; assay type: in vivo, SCID/bg mice; settings: xenograft tumors of mice treated BID IP 400 mg/kg, 3 days
Description: We evaluated the effect of EWS-FLI1 in animals treated with YK-4-279 upon caveolin-1, a recognized direct gene target whose expression is increased by EWS-FLI1 [22, 23]. […] In addition, the staining pattern changes from membraneous to a more diffuse pattern (Figure 5A).
Two million A4573 or SK-ES Ewing's sarcoma cells in 0.1 mL were injected into an orthotopic paraosseous location, adjacent to the left proximal tibia, in 5-week-old female severe combined immunodeficient-beige (SCID/bg) mice (Harlan Laboratories, Inc., Indianapolis, IN). After primary tumors reached 250 – 300 mm^3 size, mice were randomized and received intraperitoneal injection (IP) with vehicle control (0.25% Lecithin solution or DMSO), (S)-YK-4-279, (R)-YK-4-279 or racemic YK-4-279 at a dose of 400 mg/kg twice a day (BID) for 7 days in a week. The tumor volume was determined by the formula (D × d2/6) × p, where D was the longer diameter and d was the shorter diameter. Tumor volume was monitored every day by caliper until the tumor size reaches 1cm^3. Mice were euthanized and primary tumors were collected. […]
Five micron sections from formalin fxed paraffin embedded tissues were de-paraffinized with xylenes and rehydrated through a graded alcohol series. […] The sections were evaluated, in blinded fashion two times, by a pathologist (B.K.).

[2] = SD rats, female (n=9), single IV injection 25 mg/kg
[3] = SD rats, male (n=9), single IV injection 25 mg/kg
[4] = SD rats, single IV injection 25 mg/kg, average of males and females, analyte (S)-YK-4-279

SMILES | AUClast [1, 2] | AUC∞ [1, 2] | Clearance [1, 2] | Observed Cmax [1, 2] | Terminal Elimination Half-Life [1, 2] | AUClast [1, 3] | AUC∞ [1, 3] | Clearance [1, 3] | Observed Cmax [1, 3] | Terminal Elimination Half-Life [1, 3] | Average clearance [1, 4] | Average elimination half-life [1, 4] | Caveolin-1 immunohistochemical staining (caveolin-1) | Clearance slower than the clearance of (S)-YK-4-279 ([1]; SD rats (Supplemental table 1, not available))
COc1ccc(C(=O)CC2(O)C(=O)Nc3c(Cl)ccc(Cl)c32)cc1 (stereo not shown) [YK-4-279] | 25.6 hr*¼M | 25.9 hr*¼M | 2640 mL/h/kg | 37.1 ¼M | 36.1 min | 26.5 hr*¼M | 26.7 hr*¼M | 2560 mL/h/kg | 39.9 ¼M | 33.8 min | 2600 mL/h/kg | 35 min | reduced caveolin-1 staining | –
COc1ccc(C(=O)C[C@]2(O)C(=O)Nc3c(Cl)ccc(Cl)c32)cc1 [(R)-YK-4-279] | BLOQ | BLOQ | BLOQ | BLOQ | BLOQ | BLOQ | BLOQ | BLOQ | BLOQ1 | BLOQ | – | – | expected membrane caveolin-1 expression | approximately 25%
